The numbers were not newly measured in US11980189B2, “Agricultural formulations, uses thereof and processes for preparation thereof” (Valent U.S.A. LLC, priority 2020, dated 2024), which cites them from elsewhere.

On to `COCC(=O)N(c1c(C)cccc1C)C(C)C(=O)OC` (stereo not shown) [metalaxyl, Metalaxyl], for which the partial water solubility is on record as 8,400 parts per million.
